Experimental data reported in ChEMBL document CHEMBL3046635, “Synthesis and Herbicidal Activity of New Pyrazole-4-carboxamide Derivatives” (J Pestic Sci, 2004).
Calls of active or inactive are those of the source.

How the values were obtained:
[1] = system: Oryza sativa; assay: Phytotoxicity against Oryza sativa cv. Koshihikari (rice) at 500 g a.i/ha measured after 14 days; format: organism-based; details: in vivo, 336 h
[2] = system: Eleocharis acicularis; assay: Pre-emergence herbicidal activity against Eleocharis acicularis at 500 g a.i/ha measured after 14 days; format: functional, organism-based
[3] = system: Pontederia vaginalis; assay: Pre-emergence herbicidal activity against Monochoria vaginalis at 500 g a.i/ha measured after 14 days; format: functional, organism-based
[4] = system: Schoenoplectiella juncoides; assay: Pre-emergence herbicidal activity against Schoenoplectiella juncoides at 500 g a.i/ha measured after 14 days; format: functional, organism-based
[5] = system: Ammannia multiflora; assay: Pre-emergence herbicidal activity against Ammannia multiflora at 500 g a.i/ha measured after 14 days; format: functional, organism-based
[6] = system: Elatine triandra; assay: Pre-emergence herbicidal activity against Elatine triandra at 500 g a.i/ha measured after 14 days; format: functional, organism-based
[7] = system: Rotala indica; assay: Pre-emergence herbicidal activity against Rotala indica at 500 g a.i/ha measured after 14 days; format: functional, organism-based
[8] = system: Lindernia procumbens; assay: Pre-emergence herbicidal activity against Lindernia procumbens at 500 g a.i/ha measured after 14 days; format: functional, organism-based
[9] = system: Echinochloa oryzicola; assay: Pre-emergence herbicidal activity against Echinochloa oryzicola at 500 g a.i/ha measured after 14 days; format: functional, organism-based
[10] = system: Cyperus difformis; assay: Pre-emergence herbicidal activity against Cyperus difformis at 500 g a.i/ha measured after 14 days; format: functional, organism-based
[11] = system: Eleocharis acicularis; assay: Post-emergence herbicidal activity against Eleocharis acicularis assessed as bleaching of stem/leaf parts; format: functional, organism-based; note: test concentration or dose not given here
[12] = system: Eleocharis acicularis; assay: Pre-emergence herbicidal activity against Eleocharis acicularis assessed as bleaching of stem/leaf parts; format: functional, organism-based
[13] = system: Ammannia multiflora; assay: Pre-emergence herbicidal activity against Ammannia multiflora assessed as bleaching of stem/leaf parts; format: functional, organism-based
[14] = system: Rotala indica; assay: Pre-emergence herbicidal activity against Rotala indica assessed as bleaching of stem/leaf parts; format: functional, organism-based
[15] = system: Elatine triandra; assay: Pre-emergence herbicidal activity against Elatine triandra assessed as bleaching of stem/leaf parts; format: functional, organism-based
[16] = system: Lindernia procumbens; assay: Pre-emergence herbicidal activity against Lindernia procumbens assessed as bleaching of stem/leaf parts; format: functional, organism-based
[17] = system: Schoenoplectiella juncoides; assay: Pre-emergence herbicidal activity against Schoenoplectiella juncoides assessed as bleaching of stem/leaf parts; format: functional, organism-based
[18] = system: Pontederia vaginalis; assay: Pre-emergence herbicidal activity against Monochoria vaginalis assessed as bleaching of stem/leaf parts; format: functional, organism-based
[19] = system: Cyperus difformis; assay: Pre-emergence herbicidal activity against Cyperus difformis assessed as bleaching of stem/leaf parts; format: functional, organism-based
[20] = system: Echinochloa oryzicola; assay: Pre-emergence herbicidal activity against Echinochloa oryzicola assessed as bleaching of stem/leaf parts; format: functional, organism-based
[21] = system: Ammannia multiflora; assay: Post-emergence herbicidal activity against Ammannia multiflora assessed as bleaching of stem/leaf parts; format: functional, organism-based; note: test concentration or dose not given here
[22] = system: Elatine triandra; assay: Post-emergence herbicidal activity against Elatine triandra assessed as bleaching of stem/leaf parts; format: functional, organism-based; note: test concentration or dose not given here
[23] = system: Rotala indica; assay: Post-emergence herbicidal activity against Rotala indica assessed as bleaching of stem/leaf parts; format: functional, organism-based; note: test concentration or dose not given here
[24] = system: Schoenoplectiella juncoides; assay: Post-emergence herbicidal activity against Schoenoplectiella juncoides assessed as bleaching of stem/leaf parts; format: functional, organism-based; note: test concentration or dose not given here
[25] = system: Lindernia procumbens; assay: Post-emergence herbicidal activity against Lindernia procumbens assessed as bleaching of stem/leaf parts; format: functional, organism-based; note: test concentration or dose not given here
[26] = system: Pontederia vaginalis; assay: Post-emergence herbicidal activity against Monochoria vaginalis assessed as bleaching of stem/leaf parts; format: functional, organism-based; note: test concentration or dose not given here
[27] = system: Cyperus difformis; assay: Post-emergence herbicidal activity against Cyperus difformis assessed as bleaching of stem/leaf parts; format: functional, organism-based; note: test concentration or dose not given here
[28] = system: Echinochloa oryzicola; assay: Post-emergence herbicidal activity against Echinochloa oryzicola assessed as bleaching of stem/leaf parts; format: functional, organism-based; note: test concentration or dose not given here

Row | SMILES | Activity [1] | Activity [2] | Activity [3] | Activity [4] | Activity [5] | Activity [6] | Activity [7] | Activity [8] | Activity [9] | Activity [10] | Activity [11] | Activity [12] | Activity [13] | Activity [14] | Activity [15] | Activity [16] | Activity [17] | Activity [18] | Activity [19] | Activity [20] | also measured
1 | C=CCNC(=O)c1cn(C)nc1OCc1cccc(C(F)(F)F)c1 | Non-toxic | inactive | inactive | inactive | inactive | inactive | inactive | inactive | inactive | inactive | Active | Active | Active | Active | Active | Active | Active | Active | Active | Active | Activity [21]: Active; Activity [22]: Active; Activity [23]: Active; Activity [24]: Active; Activity [25]: Active; Activity [26]: Active; Activity [27]: Active; Activity [28]: Active
2 | C#CCNC(=O)c1cn(C)nc1OCc1cccc(C(F)(F)F)c1 | Non-toxic | inactive | inactive | inactive | inactive | inactive | inactive | inactive | inactive | inactive | Active | Active | Active | Active | Active | Active | Active | Active | Active | Active | Activity [21]: Active; Activity [22]: Active; Activity [23]: Active; Activity [24]: Active; Activity [25]: Active; Activity [26]: Active; Activity [27]: Active; Activity [28]: Active
3 | CCN(C(=O)c1cn(C)nc1OCc1cccc(C(F)(F)F)c1)C1CCCCC1 | Non-toxic | inactive | inactive | inactive | inactive | inactive | inactive | inactive | inactive | inactive | Active | Active | Active | Active | Active | Active | Active | Active | Active | Active | Activity [21]: Active; Activity [22]: Active; Activity [23]: Active; Activity [24]: Active; Activity [25]: Active; Activity [26]: Active; Activity [27]: Active; Activity [28]: Active
4 | Cn1cc(C(=O)Nc2ccc(C#N)cc2)c(OCc2cccc(C(F)(F)F)c2)n1 | Non-toxic | inactive | inactive | inactive | Active | Active | Active | Active | inactive | inactive | Active | Active | Active | Active | Active | Active | Active | Active | Active | Active | Activity [21]: Active; Activity [22]: Active; Activity [23]: Active; Activity [24]: Active; Activity [25]: Active; Activity [26]: Active; Activity [27]: Active; Activity [28]: Active
